Assay [1] has as its target IKZF2 (Homo sapiens, UniProt Q96SW2+Q9UKS7). Kind of assay: Prolabel quantification of IKZF2 protein levels in 293GT cells. Format: cell-based. To be noted: 293GT cells; for inhibition at 10 µM: 24 h, read-out: IKZF2 % protein reduction at 10 μM, 24 h; for DC50: Prolabel assay, read-out: IKZF2 EC50.
In assay [2] the target is IKZF1 (Homo sapiens, UniProt Q13422+Q96SW2). The assay is described as follows: Prolabel quantification of IKZF1 protein levels in 293GT cells. It counts as cell-based. Particulars: Prolabel assay, read-out: IKZF1 EC50.
IKZF1, sequence (Q13422 whole entry): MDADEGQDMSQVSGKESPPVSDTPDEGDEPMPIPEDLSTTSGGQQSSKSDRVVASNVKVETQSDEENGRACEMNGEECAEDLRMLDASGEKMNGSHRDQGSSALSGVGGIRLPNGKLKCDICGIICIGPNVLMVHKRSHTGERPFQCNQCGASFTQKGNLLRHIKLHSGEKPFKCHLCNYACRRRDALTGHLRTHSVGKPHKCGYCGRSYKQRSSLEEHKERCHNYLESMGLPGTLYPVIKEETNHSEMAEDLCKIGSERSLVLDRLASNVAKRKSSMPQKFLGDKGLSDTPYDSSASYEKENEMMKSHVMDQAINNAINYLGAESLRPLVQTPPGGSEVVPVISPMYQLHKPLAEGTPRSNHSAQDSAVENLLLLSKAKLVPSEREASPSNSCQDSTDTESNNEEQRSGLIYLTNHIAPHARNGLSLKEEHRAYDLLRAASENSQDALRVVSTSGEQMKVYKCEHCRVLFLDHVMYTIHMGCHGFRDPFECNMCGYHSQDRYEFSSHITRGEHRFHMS
IKZF1, sequence (Q96SW2 whole entry): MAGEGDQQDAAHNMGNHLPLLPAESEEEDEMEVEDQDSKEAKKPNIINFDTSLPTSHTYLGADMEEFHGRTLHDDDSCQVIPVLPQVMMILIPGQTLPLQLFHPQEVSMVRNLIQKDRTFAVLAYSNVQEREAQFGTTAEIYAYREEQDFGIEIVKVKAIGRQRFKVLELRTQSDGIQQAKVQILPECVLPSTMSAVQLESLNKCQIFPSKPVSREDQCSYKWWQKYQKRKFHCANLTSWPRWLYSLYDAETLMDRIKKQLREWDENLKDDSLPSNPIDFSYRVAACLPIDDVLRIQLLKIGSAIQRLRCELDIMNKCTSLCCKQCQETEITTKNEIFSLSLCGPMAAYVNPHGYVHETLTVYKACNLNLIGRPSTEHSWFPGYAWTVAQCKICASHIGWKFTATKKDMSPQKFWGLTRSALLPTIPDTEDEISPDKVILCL
IKZF1, sequence (Q16531 whole entry partner): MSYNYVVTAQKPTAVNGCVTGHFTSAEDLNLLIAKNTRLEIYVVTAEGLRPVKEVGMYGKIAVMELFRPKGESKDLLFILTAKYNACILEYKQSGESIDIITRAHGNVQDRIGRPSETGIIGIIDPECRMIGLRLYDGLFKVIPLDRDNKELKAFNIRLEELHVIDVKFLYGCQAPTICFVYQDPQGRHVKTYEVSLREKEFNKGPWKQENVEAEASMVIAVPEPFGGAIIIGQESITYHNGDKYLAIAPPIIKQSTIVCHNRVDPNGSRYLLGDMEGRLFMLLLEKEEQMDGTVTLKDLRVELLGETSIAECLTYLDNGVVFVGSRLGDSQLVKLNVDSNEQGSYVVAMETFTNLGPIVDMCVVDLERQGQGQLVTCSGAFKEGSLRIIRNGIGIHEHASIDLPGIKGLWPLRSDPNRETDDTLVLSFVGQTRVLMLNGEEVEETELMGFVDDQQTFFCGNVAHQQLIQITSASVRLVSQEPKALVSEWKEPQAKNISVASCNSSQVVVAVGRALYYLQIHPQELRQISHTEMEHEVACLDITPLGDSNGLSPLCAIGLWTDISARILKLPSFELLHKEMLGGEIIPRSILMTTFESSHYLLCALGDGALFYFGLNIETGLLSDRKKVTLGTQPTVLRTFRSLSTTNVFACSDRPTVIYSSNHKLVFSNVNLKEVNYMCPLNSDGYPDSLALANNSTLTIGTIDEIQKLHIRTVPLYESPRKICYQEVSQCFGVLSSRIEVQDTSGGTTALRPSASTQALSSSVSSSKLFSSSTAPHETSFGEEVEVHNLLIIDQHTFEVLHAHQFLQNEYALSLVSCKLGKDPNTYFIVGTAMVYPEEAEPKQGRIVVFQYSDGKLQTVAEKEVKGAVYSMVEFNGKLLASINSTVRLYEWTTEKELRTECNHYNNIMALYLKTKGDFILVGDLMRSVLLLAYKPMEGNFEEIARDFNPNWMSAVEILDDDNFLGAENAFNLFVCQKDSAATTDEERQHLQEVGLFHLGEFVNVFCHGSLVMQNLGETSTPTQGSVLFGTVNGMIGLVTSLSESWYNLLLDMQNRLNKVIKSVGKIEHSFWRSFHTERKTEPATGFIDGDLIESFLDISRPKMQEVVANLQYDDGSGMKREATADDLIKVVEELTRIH

Counter-ions that a name gives are not always drawn.

IKZF2, sequence (Q9UKS7 whole entry): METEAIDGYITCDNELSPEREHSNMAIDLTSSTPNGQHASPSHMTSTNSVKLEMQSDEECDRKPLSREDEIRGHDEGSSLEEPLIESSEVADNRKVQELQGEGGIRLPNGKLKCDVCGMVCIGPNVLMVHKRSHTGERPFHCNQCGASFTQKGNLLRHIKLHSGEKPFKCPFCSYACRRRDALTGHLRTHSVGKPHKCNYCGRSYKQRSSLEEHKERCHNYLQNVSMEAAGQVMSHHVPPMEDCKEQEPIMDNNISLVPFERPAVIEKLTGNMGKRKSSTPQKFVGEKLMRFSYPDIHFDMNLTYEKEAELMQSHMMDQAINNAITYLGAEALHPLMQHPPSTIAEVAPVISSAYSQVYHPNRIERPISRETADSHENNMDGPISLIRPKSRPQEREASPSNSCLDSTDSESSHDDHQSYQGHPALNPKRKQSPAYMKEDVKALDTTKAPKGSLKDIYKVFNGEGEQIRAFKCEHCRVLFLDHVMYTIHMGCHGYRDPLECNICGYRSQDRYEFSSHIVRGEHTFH
IKZF2, sequence (Q96SW2 whole entry): as the sequence (Q96SW2 whole entry) above
IKZF2, sequence (Q16531 whole entry partner): as the sequence (Q16531 whole entry partner) above

Turning to `CC(C)Oc1ccc(CN2CCC(c3ccc4c(c3)CN(C3CCC(=O)NC3=O)C4=O)CC2)cn1` (stereo not drawn) [Compound I-285, 3-(5-(1-((6-isopropoxypyridin-3-yl)methyl)piperidin-4-yl)-1-oxoisoindolin-2-yl)piperidine-2,6-dione], in assay [1], the inhibition at 10 µM was determined as 70% and the DC50 was 12 nM. Moreover, the DC50 in assay [2] was above 30000 nM.
For the compound `Nc1ccc(CN2CCC(c3ccc4c(c3)CN(C3CCC(=O)NC3=O)C4=O)CC2)cn1` (stereo not drawn) [Compound I-123, 3-(5-(1-((6-aminopyridin-3-yl)methyl)piperidin-4-yl)-1-oxoisoindolin-2-yl)piperidine-2,6-dione], in assay [1], the inhibition at 10 µM came out at 75%. The DC50 in assay [1] was 69 nM; in assay [2] it was above 30000 nM.
Turning to `Cn1cc(CN2CCC(c3ccc4c(c3)CN(C3CCC(=O)NC3=O)C4=O)CC2)cn1` (stereo not drawn) [Compound I-115, 3-(5-(1((1-methyl-1H-pyrazol-4-yl)methyl)piperidin-4-yl)-1-oxoisoindolin-2-yl)piperidine-2,6-dione], in assay [1], the inhibition at 10 µM came to 60% and the DC50 was found to be 72 nM. In assay [2], the DC50 was above 30000 nM.
`O=C1CCC(N2Cc3cc(C4CCN(Cc5ccccc5OC(F)F)CC4)ccc3C2=O)C(=O)N1` (stereo not drawn) [Compound I-80, 3-(5-(1-(2-(difluoromethoxy)benzyl)piperidin-4-yl)-1-oxoisoindolin-2-yl)piperidine-2,6-dione]: in assay [1], the inhibition at 10 µM was 60%. In addition, the DC50 is 12 nM in assay [1] and above 30000 nM in assay [2].
The corresponding values for `O=C1CCC(N2Cc3cc(C4CCN(Cc5cccc(Cl)c5)CC4)ccc3C2=O)C(=O)N1` (stereo not drawn) [Compound I-16, 3-(5-(1-(3-chlorobenzyl)piperidin-4-yl)-1-oxoisoindolin-2-yl)piperidine-2,6-dione] are 70%, 8 nM and above 30000 nM.
The corresponding values for `CC(C)Oc1cccc(CN2CCC(c3ccc4c(c3)CN(C3CCC(=O)NC3=O)C4=O)CC2)n1` (stereo not drawn) [Compound I-301, 3-(5-(1-((6-isopropoxypyridin-2-yl)methyl)piperidin-4-yl)-1-oxoisoindolin-2-yl)piperidine-2,6-dione] are 60%, 140 nM and 320 nM.
As for `O=C1CCC(N2Cc3cc(C4CCN(Cc5cc(C(F)(F)F)cc(C(F)(F)F)c5)CC4)ccc3C2=O)C(=O)N1` (stereo not drawn) [Compound I-215, 3-(5-(1-(3,5-bis(trifluoromethyl)benzyl)piperidin-4-yl)-1-oxoisoindolin-2-yl)piperidine-2,6-dione], in assay [1], the inhibition at 10 µM came out at 50% and the DC50 came to 19 nM. Besides, the DC50 in assay [2] was above 30000 nM.
Taken in the same sequence, the figures for `O=C1CCC(N2Cc3cc(C4CCN(Cc5ccc6c(c5)OC(F)(F)O6)CC4)ccc3C2=O)C(=O)N1` (stereo not drawn) [Compound I-87, 3-(5-(1-((2,2-difluorobenzo[b][1,3]dioxol-5-yl)methyl)piperidin-4-yl)-1-oxoisoindolin-2-yl)piperidine-2,6-dione] were 80%, 13 nM and above 30000 nM.
In the case of `O=C1CCC(N2Cc3cc(C4CCN(CC5CC5)CC4)ccc3C2=O)C(=O)N1` (stereo not drawn) [Compound I-3, 3-(5-(1-(cyclopropylmethyl)piperidin-4-yl)-1-oxoisoindolin-2-yl)piperidine-2,6-dione], the inhibition at 10 µM in assay [1] is 60%. In addition, the DC50 is 23 nM in assay [1] and above 30000 nM in assay [2].
Taken in the same sequence, the figures for `O=C1CCC(N2Cc3cc(C4CCN(Cc5ccccc5)C4)ccc3C2=O)C(=O)N1` (stereo not drawn) [Compound I-260, 3-(5-(1-benzylpyrrolidin-3-yl)-1-oxoisoindolin-2-yl)piperidine-2,6-dione HC(O)OH Salt] were 20%, above 30000 nM and above 30000 nM.
For the compound `CC(C)CN1CCC(c2ccc3c(c2)CN(C2CCC(=O)NC2=O)C3=O)CC1` (stereo not drawn) [Compound I-4, 3-(5-(1-isobutylpiperidin-4-yl)-1-oxoisoindolin-2-yl) piperidine-2,6-dione], in assay [1], the inhibition at 10 µM came out at 60% and the DC50 came out at 31 nM. The DC50 in assay [2] is above 30000 nM.
Turning to `CC(c1ccccc1)N1CCC(c2ccc3c(c2)CN(C2CCC(=O)NC2=O)C3=O)CC1` (single isomer, unassigned) [Compound I-230], in assay [1], the inhibition at 10 µM amounted to 65% and the DC50 turned out to be 9 nM. Moreover, in assay [2], the DC50 was above 30000 nM.
Taken in the same sequence, the figures for `O=C1CCC(N2Cc3cc(C4CCN(Cc5ccc6c(c5)OCCO6)CC4)ccc3C2=O)C(=O)N1` (stereo not drawn) [Compound I-83, 3-(5-(1-((2,3-dihydrobenzo[b][1,4]dioxin-6-yl)methyl)piperidin-4-yl)-1-oxoisoindolin-2-yl)piperidine-2,6-dione] were 80%, 52 nM and above 30000 nM.
Consider `O=C1CCC(N2Cc3cc(C4CCN(Cc5cccc(C(=O)O)c5)CC4)ccc3C2=O)C(=O)N1` (stereo not drawn) [Compound I-74, 3-((4-(2-(2,6-dioxopiperidin-3-yl)-1-oxoisoindolin-5-yl)piperidin-1-yl)methyl)benzoic acid], for which, in assay [1], the inhibition at 10 µM is 55% and the DC50 was found to be 2100 nM. Besides, the DC50 in assay [2] is above 30000 nM.
The corresponding values for `O=C1CCC(N2Cc3cc(C4CCN(C(c5ccccc5)C(F)(F)F)CC4)ccc3C2=O)C(=O)N1` (stereo not drawn) [Compound I-224, 3-(1-oxo-5-(1-(2,2,2-trifluoro-1-phenylethyl)piperidin-4-yl)isoindolin-2-yl)piperidine-2,6-dione HC(O)OH salt] are 0%, above 50000 nM and above 50000 nM.
For `O=C1CCC(N2Cc3cc(C4CCN(Cc5ccc(C(=O)O)cc5)CC4)ccc3C2=O)C(=O)N1` (stereo not drawn) [Compound I-72, 4-((4-(2-(2,6-dioxopiperidin-3-yl)-1-oxoisoindolin-5-yl)piperidin-1-yl)methyl)benzoic acid], in assay [1], the inhibition at 10 µM is 55%. In addition, the DC50 was 4500 nM in assay [1] and above 30000 nM in assay [2].
Take `O=C1CCC(N2Cc3cc(C4CCN(Cc5ccc6ccccc6c5)CC4)ccc3C2=O)C(=O)N1` (stereo not drawn) [Compound I-47, 3-(5-(1-(naphthalen-2-ylmethyl)piperidin-4-yl)-1-oxoisoindolin-2-yl)piperidine-2,6-dione]: in assay [1], the inhibition at 10 µM amounted to 80% and the DC50 was 8 nM. In addition, the DC50 in assay [2] is above 30000 nM.
Regarding `O=C1CCC(N2Cc3cc(C4CCN(Cc5ncon5)CC4)ccc3C2=O)C(=O)N1` (stereo not drawn) [Compound I-204, 3-(5-(1-((1,2,4-oxadiazol-3-yl)methyl)piperidin-4-yl)-1-oxoisoindolin-2-yl)piperidine-2,6-dione], in assay [1], the inhibition at 10 µM is 0% and the DC50 was above 50000 nM. Moreover, in assay [2], the DC50 is above 50000 nM.
On to `COC(=O)c1coc(CN2CCC(c3ccc4c(c3)CN(C3CCC(=O)NC3=O)C4=O)CC2)n1` (stereo not drawn) [Compound I-254, methyl 2-((4-(2-(2,6-dioxopiperidin-3-yl)-1-oxoisoindolin-5-yl)piperidin-1-yl)methyl)oxazole-4-carboxylate], for which the inhibition at 10 µM in assay [1] was found to be 40%. Further, the DC50 is 680 nM in assay [1] and above 30000 nM in assay [2].
The corresponding values for `O=C1CCC(N2Cc3cc(C4CCN(Cc5cn[nH]c5)CC4)ccc3C2=O)C(=O)N1` (stereo not drawn) [Compound I-116, 3-(5-(1-((1H-pyrazol-4-yl)methyl)piperidin-4-yl)-1-oxoisoindolin-2-yl)piperidine-2,6-dione] are 60%, 160 nM and above 30000 nM.
Regarding `Cn1ccc(CN2CCC(c3ccc4c(c3)CN(C3CCC(=O)NC3=O)C4=O)CC2)n1` (stereo not drawn) [Compound I-117, 3-(5-(1-((1-methyl-1H-pyrazol-3-yl)methyl)piperidin-4-yl)-1-oxoisoindolin-2-yl)piperidine-2,6-dione], in assay [1], the inhibition at 10 µM came out at 50% and the DC50 is 50 nM. Moreover, the DC50 in assay [2] is above 30000 nM.
`O=C1CCC(N2Cc3cc(C4CCN(Cc5cccc6ccccc56)CC4)ccc3C2=O)C(=O)N1` (stereo not drawn) [Compound I-49, 3-(5-(1-(naphthalen-1-ylmethyl)piperidin-4-yl)-1-oxoisoindolin-2-yl)piperidine-2,6-dione]: in assay [1], the inhibition at 10 µM is 60% and the DC50 is 4 nM. In assay [2], the DC50 is above 30000 nM.
`O=C1CCC(N2Cc3cc(C4C[C@H]5CC[C@@H](C4)N5Cc4ccccc4)ccc3C2=O)C(=O)N1` (stereo partly drawn) [Compound I-265, 3-(5-(8-benzyl-8-azabicyclo[3.2.1]octan-3-yl)-1-oxoisoindolin-2-yl)piperidine-2,6-dione HC(O)OH salt]: in assay [1], the inhibition at 10 µM is 70% and the DC50 was determined as 5 nM. Moreover, the DC50 in assay [2] is above 50000 nM.
With `COC1CCN(c2ccc(CN3CCC(c4ccc5c(c4)CN(C4CCC(=O)NC4=O)C5=O)CC3)cc2)CC1` (stereo not drawn) [Compound I-227, 3-(5-(1-(4-(4-methoxypiperidin-1-yl)benzyl)piperidin-4-yl)-1-oxoisoindolin-2-yl)piperidine-2,6-dione], in assay [1], the inhibition at 10 µM is 60% and the DC50 was found to be 4 nM. Further, the DC50 in assay [2] is above 30000 nM.
Take `O=C1CCC(N2Cc3cc(C4CCCN(Cc5ccccc5)CC4)ccc3C2=O)C(=O)N1` (single isomer, unassigned) [Compound I-190, 3-(5-(1-benzylazepan-4-yl)-1-oxoisoindolin-2-yl)piperidine-2,6-dione]: in assay [1], the inhibition at 10 µM is 30% and the DC50 stood at 170 nM. Moreover, in assay [2], the DC50 is above 30000 nM.
Consider `O=C1CCC(N2Cc3cc(C4CCN(Cc5cccc(OC(F)(F)F)c5)CC4)ccc3C2=O)C(=O)N1` (stereo not drawn) [Compound I-54, 3-(1-oxo-5-(1-(3-(trifluoromethoxy)benzyl)piperidin-4-yl)isoindolin-2-yl)piperidine-2,6-dione], for which the inhibition at 10 µM in assay [1] amounted to 60%. For the same compound, the figures for the DC50 in assay [1] and in assay [2] were 20 nM and above 30000 nM, respectively.
